In article PMC7226106, “Population Pharmacokinetics/Pharmacodynamics of Dabrafenib Plus Trametinib in Patients with BRAF-Mutated Metastatic Melanoma” (Cancers, 2020):
Where two headings read alike, the source gives them in different places.

Assays:
[1] = parameters: method as in PMID 24408395; details: fixed in base and final model and bootstrap; cited from earlier work
[2] = cited from earlier work
[3] = Model-estimated systemic exposure (AUC) in BRAF^V600-mutated MM patients treated with CombiDT; details: for AUC: human, plasma, oral
Method: (§1) Pharmacokinetic/pharmacodynamic analysis was conducted in BRAF^V600-mutated MM patients concomitantly treated with CombiDT. Regarding safety, the onset of DLT was considered as the clinical endpoint. A DLT was defined as any toxicity leading to dose reduction or temporary or permanent discontinuation of treatment. Regarding survival, the primary end point was progression free survival (PFS), the time from DAB and TRA treatment initiation to documented progression event (either clinical or radiological progression) or death from any cause. The secondary end-point was overall survival (OS), defined as the time from DAB and TRA treatment initiation to death from any cause. Radiographic evidence of progression was defined according to modified Response Evaluation Criteria in Solid Tumor (RECIST) v1.1 [41].
Systemic exposures to DAB, OHD, and TRA (AUCDAB, AUCOHD, and AUCTRA, respectively) were calculated with classic equations, composite DAB and OHD AUC (AUCDAB+OHD) as previously explained and AUCOHD/DAB as the ratio of AUCOHD over AUCDAB. Univariate Fisher and Wilcoxon models were performed to identify which parameters could contribute to the onset of DLT. The following variables were tested: sex, age at treatment initiation, BMI, Eastern Cooperative Oncology Group Performance Status (ECOG PS: grade 0-1 vs ≥2), lactate dehydrogenase (LDH) level (<1.5N vs. ≥1.5N), AUCDAB, AUDOHD, AUCDAB+OHD, and AUCTRA.
Multivariate Cox models according to a stepwise procedure were tested including all variables which were significant at 5% level in the univariate analyses. All the pharmacokinetic/pharmacodynamic analyses were performed using R program v3.6.1 with RStudio v1.1.383 (http://www.r-project.org).

[4] = parameters: method as in earlier work; details: preclinical data; cited from earlier work
[5] = test system: BRAF^V600-mutated metastatic melanoma; test: Survival (PFS, OS) and Cox exposure-survival analysis under CombiDT; format: in vivo, human (patients)
Method: as §1
Multivariate Cox models according to a stepwise procedure were tested including all variables which were significant at 5% level in the univariate analyses.

[6] = Population pharmacokinetic model of dabrafenib/hydroxy-dabrafenib (NONMEM) from plasma concentrations; format: in vivo, human (patients); details: for Vd/F: both sexes, human, plasma, oral, 150 mg twice daily, read-out: V2/F, apparent central volume of distribution of DAB
From the text: Seventy-three outpatients treated with DAB were enrolled from July 2015 to June 2017 in this observational multicentric study including three hospitals of the Assistance Publique—Hôpitaux de Paris (Cochin, Henri Mondor, and Avicenne). To be eligible, patients needed to meet the following criteria: a minimal age of 18 years, metastatic BRAF^V600-mutated solid tumors, treatment with DAB or CombiDT with at least one available DAB concentration measurement.
DAB, dabrafenib-d9 (internal standard, IS), and TRA were purchased from LGC Standards (Molsheim, France). A custom synthesis was developed by Shanghai Medicilon (Shanghai, China) for OHD. The plasma concentrations were assayed using a validated high-performance liquid chromatography-tandem mass spectrometry (HPLC-MS/MS) (ATSQ Quantum Ultra®mass spectrometer, ThermoFisher, Les Ulis, France). Chromatographic separation was performed on Accucore® C18 (2.1 × 50 mm; 2.6 µm) analytical column (ThermoFisher Scientific, Les Ulis, France) associated with a guard column packed with the same bonded phase. Two hundred microliters (µL) aliquot of plasma (calibration standard, internal quality control or patient sample) was mixed with 20 µL of IS solution. Then 600 µL acetonitrile with 1% (v/v) formic acid was added. Samples were mixed and centrifuged, and the supernatant was evaporated and recovered with 200 µL of mobile phase: water/methanol (70:30%, v/v) with formic acid (0.1% v/v). Ten microliters of this mixture were injected into the HPLC-MS/MS system. The calibration standards ranged from 10 to 2000 ng/mL for DAB and OHD and from 5 to 50 ng/mL for TRA.
Blood samples were collected in heparinized tubes during the treatment course, and the exact sample time was recorded. Plasma was separated by centrifugation (3000 rpm, 5 min), and stored at −20 °C until analysis.
The non-linear mixed effects modeling program NONMEM v7.4.1 [34] with the Perl-Speaks NONMEM (PsN) Toolkit v4.8.0 [35] was used to build DAB/OHD and TRA models. Pirana v2.9.2 was used to assist in model development. […] Molar units were used for DAB/OHD analyses. Plasma samples with concentrations below the lower limit of quantification of the assay, non-reliable time information about blood sampling, or without dose information were excluded from the analysis.
A stepwise strategy was used to identify the base models that best fitted DAB/OHD and TRA pharmacokinetic data. Different structural models such as one or two compartments, with linear absorption with or without lag time, were compared. DAB and OHD were modeled simultaneously testing multi-compartment models for both compounds. We hypothesized that DAB was cleared by complete oxidation to OHD, since it is not eliminated as unchanged molecule in urine and accounts for less than 22% in feces. Moreover, the first-order absorption rate constant (ka) of DAB was fixed to 1.8 h^−1 according to a previously published value to allow an adequate estimate of all pharmacokinetic parameters. Since DAB and TRA are administered orally, the pharmacokinetic parameters represent apparent values. Exponential errors following a log-normal distribution were assumed for the description of IIV of all the pharmacokinetic parameters. Inter-occasion variability (IOV) was tested in both DAB/OHD and TRA models to assess differences in individual parameters across study occasions. Additive, proportional, and mixed error models were compared to depict the residual unexplained variability (RUV) for both drugs and metabolite. The correlation between DAB and OHD data was tested using the L2 item in NONMEM. […]

[7] = test system: BRAF^V600-mutated MM patients; test: Safety: adverse events and dose-limiting toxicities (DLT) under CombiDT
Method: Patients initiated DAB at the recommended daily dose of 150 mg twice daily. In patients treated with CombiDT, TRA was started at 2 mg once daily. Reduced starting doses were allowed at physician discretion based on comorbidities and patients’ general condition. All AE were graded using the National Cancer Institute Common Toxicity Criteria v4.0. DAB treatment was continued until disease progression, unacceptable toxicity, or unfitness to receive it.

[8] = reference models built upon clinical trial data
[9] = bootstrap median (n = 500 samples)

## CC(C)(C)c1nc(-c2cccc(NS(=O)(=O)c3c(F)cccc3F)c2F)c(-c2ccnc(N)n2)s1 [DAB, Dabrafenib]
[1]
  ka, first-order absorption rate constant: 1.8 fixed 1/h
[2]
  unchanged molecule in feces: less than 22%
[2]; previously published value, fixed in the model
  first-order absorption rate constant (ka): 1.8 h⁻¹
[2]; [8]
  CL/F: 17.0 L/h
  Q/F: 3.30 L/h
  lag time: 0.482 h
[3]; AUC, median (range), patients with DAB-related DLT (n = 12), last AUC before onset of DLT
  AUC: 9620 ng·h/mL
[3]; AUC, median (range), patients without DAB-related DLT (n = 40), average AUC over treatment course
  AUC: 7480 ng·h/mL
[3]; mean AUCDAB, after DAB dose reduction, n = 8
  AUC: 5040 ng·h/mL
[3]; mean AUCDAB, before DAB dose reduction, n = 8
  AUC: 9010 ng·h/mL
[3]; median AUCM3 (mean AUC during the first three months of treatment), 30 MM patients of the exposure-survival analysis
  AUC: 7720 ng·h/mL
[3]; n = 8
  decrease in mean AUCDAB after DAB dose reduction: 1.8 fold
[4]
  passage of the intact blood brain barrier: may cross intact blood brain barrier
[5]; present cohort
  patients who discontinued DAB treatment because of cerebral progression: 72%
[5]; univariate Cox model, n = 30
  Risk of Death, HR (CI95%) for AUCM3: 1.02 (0.75–1.39)
  Risk of Progression, HR (CI95%) for AUCM3: 1.04 (0.82–1.32)
[6]; DAB monotherapy vs. combiDT (ΔOFV = −2.9, p > 0.05)
  difference in pharmacokinetics: did not differ
[6]; base DAB/OHD model
  IIV CL/F, interindividual variability (coefficient of variation): 21.9%
  IIV V2/F, interindividual variability (coefficient of variation): 43.0%
  IOV, inter-occasion variability on CL/F (coefficient of variation): 17.2%
  RUV of DAB, residual unexplained variability (proportional): 49.2%
  Tlag, lag time: 0.50 h
  Vd/F: 39.5 L
[6]; base DAB/OHD model, n = 73, steady state
  CL/F, apparent clearance of DAB: 17.7 L/h
[6]; [9]
  CL/F, apparent clearance of DAB: 19.2 L/h
  IIV CL/F, interindividual variability (coefficient of variation): 14.4%
  IIV V2/F, interindividual variability (coefficient of variation): 69.4%
  IOV, inter-occasion variability on CL/F (coefficient of variation): 17.0%
  RUV of DAB, residual unexplained variability (proportional): 48.2%
  Tlag, lag time: 0.499 h
  Vd/F: 38.3 L
[6]; final DAB/OHD model
  Vd/F: 39.1 L
  CL/F, apparent clearance of DAB: 19.3 L/h
  IIV CL/F, interindividual variability (coefficient of variation): 16.0%
  IIV V2/F, interindividual variability (coefficient of variation): 50.8%
  IOV, inter-occasion variability on CL/F (coefficient of variation): 17.4%
  RUV of DAB, residual unexplained variability (proportional): 48.7%
  Tlag, lag time: 0.499 h
[6]; comparing 20-year-old to 90-year-old patients
  reduction of CL/F: 55%
[6]; concomitant proton-pump inhibitor (PPI) intake (ΔOFV = −3.5, p > 0.05)
  difference in pharmacokinetics: did not differ
[6]; in vivo
  base model variance of clearance explained by covariates (sex, age): 47%
[6]; model building
  inter-occasion variability (IOV) on CL/F: 17%
[6]; women vs. men
  reduction of CL/F: 17%
[7]; 52 MM patients
  patients in whom the drug dose was reduced: 15%
  patients in whom the drug was discontinued permanently: 8%
  patients who experienced a drug-related DLT: 23%
[7]; human, in vivo
  median time to onset of drug-related DLT: 110 days
